# Columns and labels:
# [1] = tested on: SCLC; assay: Phase 2 trial of lurbinectedin monotherapy in SCLC: antitumor activity (ORR, DOR, PFS, OS; RECIST v1.1); format: in vivo, human
# Protocol: A clinical study of lurbinectedin monotherapy for patients collectively afflicted with SCLC who have refractory or resistant disease, as defined herein, was carried out. In this clinical single-arm, multi-center, open-label, phase 2 trail, a cohort of 105 patients, who had measurable disease, including patients whose SCLC was unresponsive to first-line platinum-containing chemotherapy (cisplatin, carboplatin or oxaliplatin) (refractory) and patients whose SCLC recurred within or equal to 90 days after cessation of first-line therapy (resistant), were treated with lurbinectedin at a dosage of 3.2 mg/m^2 given intravenously over a period of 1 hour every 21 days. Lurbinectedin was provided as a sterile isotonic aqueous solution for IV infusion as described below.
# Starting dose was 3.2 mg/m^2. Dose was capped at body surface area of […] (e.g. dose not allowed to exceed 6.4 mg). Patients received lurbinectedin i.v. as a one-hour infusion on Day 1 every three weeks until disease progression or unacceptable toxicity. Three weeks was defined as one treatment cycle.
# The primary objective of this study was to assess the antitumor activity of lurbinectedin in terms of overall response rate (ORR) as primary endpoint and supported by duration of response (DOR) as secondary endpoint. ORR was assessed using RECIST v1.1. on a set of measurable lesions identified at baseline as target lesions or as non-target lesions (if any), and followed until disease progression (PD) by an appropriate method.
# Radiological tumor assessment (CT scan or MRI) was performed at baseline, and every 6 weeks from the onset of the study treatment until cycle 6 or evidence of PD, and every 9 weeks thereafter. If an objective response was observed, according to RECIST v1.1., it had to be confirmed by the same method at least four weeks after the date of the first documentation of response.
# ORR was defined as the percentage of evaluable patients with a confirmed response, either complete (CR) or partial response (PR), from the start of treatment to the date of progression or the start of a subsequent therapy or end of patients follow-up according to RECIST v1.1. DOR was calculated […], recurrence, or death due to any cause in the responder patients. The date of response, the date of radiological or clinical PD, according to the investigator assessment and the independent assessment by an independent review committee (IRC), and the date of death was registered and documented, as appropriate. The IRC determined the patient's best response and assigned the date of first documentation of response and progression/censoring according to RECIST v1.1.
# Counts and percentages, with their corresponding exact 95% confidence intervals were calculated for the binominal endpoints (i.e. ORR, clinical benefit). Time-to-event variables (OS, PFS, and DOR) and their set time estimates (i.e. PFS4/6 and OS6/12) were analyzed according to Kaplan-Meier method. The evaluation of the efficacy endpoints evaluated by IA and IRC were analyzed and compared.
# [2] = tested on: advanced solid tumors; assay: Phase 1 dose escalation of lurbinectedin plus irinotecan: MTD, RD and dose limiting toxicities; format: in vivo, human
# Protocol: A clinical study of lurbinectedin in combination with irinotecan for patients afflicted with solid tumors was carried out. […] Patients were enrolled following a standard 3+3 dose escalation design. Phase Ib/II expansion part at the recommended dose (RD) was performed to explore efficacy in indications where antitumor activity signal was observed.
# Three weeks was defined as one treatment cycle.
# Primary outcome measures were (1) maximum tolerated dose (MTD) and (2) recommended dose (RD). MTD was defined as lowest dose explored during dose escalation which one third or more of evaluable patients develop DLT in Cycle 1. RD was defined as highest dose level explored during dose escalation in which fewer than one third of evaluable patients develop DLT during Cycle 1.
# [3] = chemotherapy-free interval less than 90 days (resistant)
# [4] = lurbinectedin D1 q3w with irinotecan 75 mg/m2 D1 & D8 q3w
smiles,measurement,setting,value
"COc1ccc2[nH]c3c(c2c1)CCN[C@]31CS[C@@H]2c3c(OC(C)=O)c(C)c4c(c3[C@H](COC1=O)N1[C@@H]2[C@H]2c3c(cc(C)c(OC)c3O)C[C@@H]([C@@H]1O)N2C)OCO4 [lurbinectedin, Lurbinectedin]",Median overall survival of patients with initial objective response (post-hoc),"[1]; 37 responders, overall population",12.6 months
same,"Duration of response, median","[1]; IRC assessment, overall",5.1 months
same,Overall response rate (CR + PR),"[1]; Investigator assessment, resistant disease (CTFI <90 days, n = 45)",22.2%
same,Patients alive at 1 year after the first dose,[1]; chemotherapy-free interval less than 90 days (n = 45),16%
same,Median overall survival,[1]; [3],5.0 months
same,Median progression-free survival,[1]; [3],2.6 months
same,Disease progression with new lesions in the CNS,[1]; of 94 patients who discontinued lurbinectedin,9%
same,Median overall survival of patients with initial objective response (post-hoc),[1]; responders with resistant disease,10.9 months
same,DLTs/Evaluable patients,"[2]; Dose Level 1: lurbinectedin 1.0 mg/m2 D1 + irinotecan 75 mg/m2 D1 & D8, q3w",1/6
same,DLTs/Evaluable patients,"[2]; Dose Level 2: lurbinectedin 1.5 mg/m2 D1 + irinotecan 75 mg/m2 D1 & D8, q3w",1/4
same,DLTs/Evaluable patients,"[2]; Dose Level 3 (without G-CSF): lurbinectedin 2.0 mg/m2 D1 + irinotecan 75 mg/m2 D1 & D8, q3w",4/11
same,DLTs/Evaluable patients,"[2]; Dose Level 3* (with G-CSF): lurbinectedin 2.0 mg/m2 D1 + irinotecan 75 mg/m2 D1 & D8, q3w",3/12
same,DLTs/Evaluable patients,"[2]; Dose Level 4* (with G-CSF): lurbinectedin 2.4 mg/m2 D1 + irinotecan 75 mg/m2 D1 & D8, q3w",2/3
same,MTD with G-CSF (lurbinectedin dose),[2]; [4],2.4 mg/m2
same,MTD without G-CSF (lurbinectedin dose),[2]; [4],2.0 mg/m2
same,RD with G-CSF (lurbinectedin dose),[2]; [4],2.0 mg/m2

# Source: patent publication US12714706B2, “Methods of treating small cell lung cancer with lurbinectedin formulations” (PHARMA MAR, S.A., priority 2019, dated 2026)
